Results on ten molecules are retold here after patent US20250228855A1, “PYRAZINAMIDE COMPOUNDS” (The General Hospital Corporation, priority 2022, published 2025).

SMILES strings stand for the structures. Counter-ions that a name gives are not always drawn. Like-named read-outs stand apart in the source and are kept apart here.

For series [1], the target named is PfcProRS (Plasmodium falciparum, UniProt Q8I5R7). As to the kind of experiment: TR-FRET ligand displacement assay with tracer MAT379, PfcProRS. The class given is binding. A general note: In TR-FRET formats the signal depends on donor and acceptor labels being close together.
Sequence of PfcProRS (Q8I5R7 whole entry): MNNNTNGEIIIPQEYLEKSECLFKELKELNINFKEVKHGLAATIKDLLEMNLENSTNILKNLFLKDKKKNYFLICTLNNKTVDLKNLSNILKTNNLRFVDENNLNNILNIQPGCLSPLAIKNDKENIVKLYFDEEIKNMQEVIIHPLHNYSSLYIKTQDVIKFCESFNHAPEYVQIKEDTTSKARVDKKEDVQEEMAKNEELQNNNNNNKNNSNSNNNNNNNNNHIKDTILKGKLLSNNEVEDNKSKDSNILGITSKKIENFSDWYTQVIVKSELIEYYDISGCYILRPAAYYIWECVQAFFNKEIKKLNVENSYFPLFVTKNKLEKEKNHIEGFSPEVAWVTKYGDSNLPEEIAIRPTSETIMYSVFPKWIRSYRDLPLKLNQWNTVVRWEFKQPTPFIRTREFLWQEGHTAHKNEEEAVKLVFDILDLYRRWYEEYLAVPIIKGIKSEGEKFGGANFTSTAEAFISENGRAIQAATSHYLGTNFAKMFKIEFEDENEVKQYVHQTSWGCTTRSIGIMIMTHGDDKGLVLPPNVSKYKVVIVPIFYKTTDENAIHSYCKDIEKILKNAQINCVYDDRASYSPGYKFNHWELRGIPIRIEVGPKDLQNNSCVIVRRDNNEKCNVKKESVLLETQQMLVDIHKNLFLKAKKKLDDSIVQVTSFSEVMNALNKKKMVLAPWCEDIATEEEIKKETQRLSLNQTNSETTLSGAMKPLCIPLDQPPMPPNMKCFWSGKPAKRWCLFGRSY
Series [2] concerns P. falciparum Dd2-2D4. Description: P. falciparum asexual blood stage growth assay, wild-type Dd2-2D4. As to conditions: Plasmodium falciparum.
Description: (§3) Asexual blood stage (ABS) P. falciparum parasites were treated with test compounds at varying concentrations for 72 h, followed by quantification of parasite growth by SYBR Green staining.
(§4) P. falciparum Asexual Blood Stage Growth Assay: This assay was performed as previously described.
Series [3] relates to luciferase-expressing P. berghei ANKA sporozoites. As to the kind of experiment: P. berghei liver stage assay in HuH7 cells. As to conditions: Plasmodium berghei, Huh-7; HuH7 hepatocytes, ~44 hpi, luminescence. The class given is cell-based. The procedure:
(§1) Halofuginone and derivatives are active against liver stage Plasmodium parasites. NCP26 and MAT436 were evaluated in a tissue culture-based P. berghei liver stage model. Specifically, various test compounds were added in dose-response to human hepatocytes (HuH7) followed by infection with luciferase-expressing P. berghei ANKA sporozoites, which enabled quantification of parasite load by luminescence. In parallel, host cell viability was also assessed to provide an estimate of cellular selectivity.
(§2) P. berghei Liver Stage and HuH7 Host Hepatocyte Growth Assay: HuH7 cells (Sigma) were cultured in DMEM+L-Glutamine (Gibco) supplemented with 10% (v/v) heat-inactivated FBS (Sigma) and 1% (v/v) antibiotic/antimycotic (Sigma). Hepatocyte cultures were maintained in a standard tissue culture incubator at 37° C. Anopheles mosquitoes infected with luciferase-expressing P. berghei ANKA sporozoites were obtained from the Sporocore at the University of Georgia. […] At ˜44 hpi, HuH7 cell viability and P. berghei parasite load was assessed using CellTiter-Fluor (Promega) and Bright-Glo (Promega), respectively, using an Envision plate reader. Relative fluorescence and luminescence signal intensities were normalized to the negative control, 1% DMSO. EC50 values were determined using GraphPad Prism through fitting data to a dose response curve. […]

Series [4] deals with halofuginone-induced (HFG-induced) P. falciparum. Description: P. falciparum asexual blood stage growth assay, halofuginone-induced parasites. As to conditions: Plasmodium falciparum.
Description: as §3, §4
Series [5] can be described thus: Storage stability of MAT436·HBr (LC-MS). The class given is physicochemical.
For series [6], the target named is T1, HsProRS (Homo sapiens, UniProt P07814).
T1 sequence (P07814 1007-1512 limits assumed): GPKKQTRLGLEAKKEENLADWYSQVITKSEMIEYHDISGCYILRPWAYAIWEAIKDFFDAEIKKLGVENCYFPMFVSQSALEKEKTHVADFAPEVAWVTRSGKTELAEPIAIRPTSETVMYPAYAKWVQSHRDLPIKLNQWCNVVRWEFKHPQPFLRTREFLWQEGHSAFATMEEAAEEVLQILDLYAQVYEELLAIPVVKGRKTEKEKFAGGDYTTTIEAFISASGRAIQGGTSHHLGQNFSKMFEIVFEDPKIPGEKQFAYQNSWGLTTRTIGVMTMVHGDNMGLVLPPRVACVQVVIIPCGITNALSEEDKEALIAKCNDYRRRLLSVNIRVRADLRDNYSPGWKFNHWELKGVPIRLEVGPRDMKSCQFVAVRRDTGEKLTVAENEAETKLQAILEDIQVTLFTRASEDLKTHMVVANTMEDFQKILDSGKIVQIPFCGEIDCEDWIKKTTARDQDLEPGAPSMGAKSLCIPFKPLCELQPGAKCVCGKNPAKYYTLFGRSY
Description: TR-FRET ligand displacement assay with tracer MAT379, HsProRS. The class given is binding.

In series [7] the test system is HuH7 cells. As to the kind of experiment: HuH7 host hepatocyte viability assay. The class given is cell-based. The note with it: Homo sapiens, Huh-7; host cell viability. The method, then: as §1, §2
Setting [8] is: PfcProRS (KD [nM]) +proline, 100 μM Pro.
[9] abbreviates: DD2, 72 h, read-out: Dd2 (EC50 [nM]) wt.
The mark [10] stands for this setting: DD2, read-out: EC50 against Dd2-2D4 wildtype parasites.
Setting [11] is: DD2, 72 h, read-out: Dd2 (EC50 [nM]) Halofuginone-induced.
The mark [12] stands for this setting: absence of proline, read-out: KD for HsProRS.
The mark [13] stands for this setting: absence of proline, read-out: KD for PfcProRS.
Where [14] appears, read: no proline, no ATP, read-out: HsProRS (KD [nM]) −.
The mark [15] stands for this setting: read-out: HsProRS (KD [nM]) +proline, 100 μM Pro.
Where [16] appears, read: no proline, no ATP, read-out: PfcProRS (KD [nM]) −.
The mark [17] stands for this setting: read-out: PfcProRS (KD [nM]) +proline, 100 μM Pro.
Where [18] appears, read: PfcProRS (KD [nM]) +ATP, 500 μM ATP.

Usually Kd stands for the equilibrium constant for the complex coming apart. Usually EC50 stands for the midpoint of the concentration-response curve. As to `O=C(C[C@H]1NCCC[C@@H]1OC(=O)NS(=O)(=O)N1CCN(C(=O)Nc2nccnc2C(=O)NC2Cc3ccccc3C2)CC1)Cn1cnc2cc(Br)c(Cl)cc2c1=O` (relative stereo) [MAT436 (34), trans-2-(3-(7-bromo-6-chloro-4-oxoquinazolin-3(4H)-yl)-2-oxopropyl)piperidin-3-yl ((4-((3-((2,3-dihydro-1H-inden-2-yl)carbamoyl)pyrazin-2-yl)carbamoyl)piperazin-1-yl)sulfonyl)carbamate hydrobromide], the Kd in series [1] (setting [8]) worked out at 0.722 nM; in series [1] (absence of ATP, read-out: KD for PfcProRS), 0.375 nM. Besides, in series [1] (absence of ATP), the “fold affinity for PfcProRS compared to halofuginone in the absence of ATP” value is listed as > 10^4 fold. Moreover, the EC50 in series [2] (setting [9]) worked out at 6.76 nM; in series [2] (setting [10]), 6.8 nM; in series [3] it was 186 nM; in series [4] (setting [11]) it was 251 nM. Besides, in series [5] (10 mM stock solution in DMSO, 8 days at room temperature, LC-MS), the “hydrolyzed at carbamate carbonyl” value was roughly 36%. Moreover, the “stability of neat compound” value in series [5] (neat, 4° C.) was “stable indefinitely”.
The IC50 is the concentration at which inhibition is half-maximal. With `O=C(NS(=O)(=O)NCC1CCN(C(=O)Nc2nccnc2C(=O)NC2Cc3ccccc3C2)CC1)OCCn1cnc2ccccc2c1=O` [MAT514, 2-(4-oxoquinazolin-3(4H)-yl)ethyl (N-((1-((3-((2,3-dihydro-1H-inden-2-yl)carbamoyl)pyrazin-2-yl)carbamoyl)piperidin-4-yl)methyl)sulfamoyl)carbamate], the Kd turned out to be 372 nM in series [6], 277 nM in series [6] (setting [12]), 32.6 nM in series [1] (setting [8]) and 35.2 nM in series [1] (setting [13]). Also, the EC50 in series [2] (setting [9]) was determined as 4560 nM; in series [4] (setting [11]) it was 7040 nM. Besides, the IC50 in series [2] (DD2, read-out: IC50 for Dd2-2D4) turned out to be 4560 nM.
`O=C(CCCCCNC(=O)Nc1ccccc1)NC1CCN(C(=O)Nc2nccnc2C(=O)NC2Cc3ccccc3C2)CC1` [MAT515]: the dissociation constant (Kd) stood at 504 nM in series [6], 169 nM in series [6] (setting [12]), 46.6 nM in series [1] (setting [8]) and 70.4 nM in series [1] (setting [13]). The EC50 in series [2] (setting [9]) was found to be 381 nM; in series [4] (setting [11]), 3300 nM.
On to `O=C(CCCCCNC(=O)Nc1ccccc1)NCC1CCN(C(=O)Nc2nccnc2C(=O)NC2Cc3ccccc3C2)CC1` [MAT516], for which the Kd in series [6] (setting [14]) was 402 nM; in series [6] (setting [15]), 159 nM; in series [1] (setting [16]) it was 94.1 nM; in series [1] (setting [17]) it was 60.8 nM. Also, the EC50 in series [2] (setting [9]) was 636 nM; in series [4] (setting [11]), 4760 nM.
On to `O=C(CCCCCNC(=S)Nc1ccccc1)NCC1CCN(C(=O)Nc2nccnc2C(=O)NC2Cc3ccccc3C2)CC1` [MAT517], for which the Kd worked out at 865 nM in series [6] (setting [14]), 1680 nM in series [6] (setting [15]), 95.6 nM in series [1] (setting [16]) and 80.2 nM in series [1] (setting [17]). The EC50 was 2680 nM in series [2] (setting [9]) and 6840 nM in series [4] (setting [11]).
As for `O=C(CCCCCNC(=S)NC1CCCCC1)NCC1CCN(C(=O)Nc2nccnc2C(=O)NC2Cc3ccccc3C2)CC1` [MAT518], the Kd was greater than 5090 nM in series [6], 2760 nM in series [6] (setting [12]), 288 nM in series [1] (setting [8]) and 372 nM in series [1] (setting [13]). The “selectivity for PfcProRS compared to HsProRS” value in series [1] is roughly 7 fold. For the same molecule, the EC50 in series [2] (setting [9]) worked out at 1820 nM; in series [4] (setting [11]) it was 1500 nM.
For `CC(C)(C)OC(=O)N1CCC[C@@H](OC(=O)NS(=O)(=O)N2CCN(C(=O)Nc3nccnc3C(=O)NC3Cc4ccccc4C3)CC2)[C@@H]1CC(O)Cn1cnc2cc(Br)c(Cl)cc2c1=O` (stereo partly drawn) [MAT582, tert-butyl (2S,3R)-2-(3-(7-bromo-6-chloro-4-oxoquinazolin-3(4H)-yl)-2-hydroxypropyl)-3-((((4-((3-((2,3-dihydro-1H-inden-2-yl)carbamoyl)pyrazin-2-yl)carbamoyl)piperazin-1-yl)sulfonyl)carbamoyl)oxy)piperidine-1-carboxylate], the Kd in series [6] is 8.42 nM; in series [6] (setting [14]), 265 nM; in series [1] (setting [8]) it was 2740 nM; in series [1] (setting [16]), 2490 nM. Further, the results for the EC50 in series [2] (setting [9]) and in series [4] (setting [11]) were 8660 nM and greater than 10000 nM, respectively.
Consider `O=C(NS(=O)(=O)N1CCN(C(=O)Nc2nccnc2C(=O)NC2Cc3ccccc3C2)CC1)O[C@H]1CCCN[C@@H]1CC(O)Cn1cnc2cc(Br)c(Cl)cc2c1=O` (stereo partly drawn) [MAT583, (2R,3S)-2-(3-(7-bromo-6-chloro-4-oxoquinazolin-3(4H)-yl)-2-hydroxypropyl)piperidin-3-yl ((4-((3-((2,3-dihydro-1H-inden-2-yl)carbamoyl)pyrazin-2-yl)carbamoyl)piperazin-1-yl)sulfonyl)carbamate 2,2,2-trifluoroacetate], for which the Kd in series [6] is 150 nM; in series [6] (setting [14]) it was 687 nM; in series [1] (setting [8]) it was 19 nM; in series [1] (setting [16]), 187 nM. Also, the figures for the EC50 in series [2] (setting [9]) and in series [4] (setting [11]) were 2270 nM and 7750 nM, respectively.
Turning to `O=C(NC1Cc2ccccc2C1)c1nccnc1NC(=O)N1CCCCC1` [NCP26 (3), N-(2,3-dihydro-1H-inden-2-yl)-3-(piperidine-1-carboxamido)pyrazine-2-carboxamide], the Kd in series [6] (setting [14]) amounted to 271 nM; in series [6] (read-out: HsProRS (KD [nM]) +ATP, +ATP) it was 678 nM; in series [6] (setting [15]) it was 0.351 nM; in series [1] (setting [18]) it was 103 nM; in series [1] (setting [8]), 2.52 nM; in series [1] (setting [16]), 130 nM. Moreover, the EC50 in series [2] (setting [9]) was 67.4 nM; in series [2] (setting [10]) it was 67.4 nM; in series [3] it was 249 nM; in series [4] (setting [11]) it was 120 nM; in series [4] (read-out: EC50 in halofuginone-induced parasites), 120 nM; in series [7], greater than 2500 nM.
For `O=C(C[C@H]1NCCC[C@@H]1O)Cn1cnc2cc(Br)c(Cl)cc2c1=O` [halofuginone(1), halofuginone, reference compound], the Kd in series [6] was 2040 nM; in series [6] (HsProRS (KD [nM]) +ATP, +ATP) it was 0.225 nM; in series [6] (setting [14]), 1160 nM; in series [1] (setting [18]) it was 0.503 nM; in series [1] (setting [8]), greater than 3000 nM; in series [1] (setting [16]), greater than 3000 nM. For the same molecule, the EC50 in series [2] (setting [9]) stood at 0.519 nM; in series [4] (setting [11]) it was 19.2 nM.
